Data on seven compounds can be found in patent US8987287B2, “Spirocyclic morphinans and their use” (Purdue Pharma L.P., priority 2012, dated 2015).

In one test the target is μ-opioid receptor (Homo sapiens (Human), UniProt P35372). Kind of test: μ-opioid receptor [35S]GTPγS functional assay, U-2 OS cells. It is filed as biochemical. Conditions: for Emax: relative to DAMGO, U-2 OS cells. As to the method: μ-Opioid Receptor Functional Assay Procedures: [^35S]GTPγS functional assays were conducted using freshly thawed μ-receptor membranes prepared in-house from a cell line expressing recombinant μ opioid receptor in a HEK-293, CHO or U-2 OS cell background, or purchased from a commercial source (Perkin Elmer, Shelton, Conn.; or DiscovRx, Fremont, Calif.). Assay reactions were prepared by sequentially adding the following reagents to binding buffer (100 mM NaCl, 10 mM MgCl2, 20 mM HEPES, pH 7.4) on ice (final concentrations indicated): membrane protein (0.026 mg/mL), saponin ([…]), GDP ([…]) and [^35S]GTPγS (0.20 nM; Perkin Elmer, Shelton, Conn.). The prepared membrane solution (190 μl/well) was transferred to 96-shallow well polypropylene plates containing 10 μl of 20× concentrated stock solutions of the agonist [D-Ala^2, N-methyl-Phe^4 Gly-ol^5]-enkephalin (DAMGO) prepared in dimethyl sulfoxide (DMSO). Plates were incubated for 30 min at about 25° C. with shaking. Reactions were terminated by rapid filtration onto 96-well Unifilter GF/B filter plates (Perkin Elmer, Shelton, Conn.) using a 96-well tissue harvester (Perkin Elmer, Shelton, Conn.) followed by three filtration washes with 200 μl of ice-cold wash buffer (10 mM NaH2PO4, 10 mM Na2HPO4, pH 7.4). Filter plates were subsequently dried at 50° C. for 2-3 hours. BetaScint scintillation cocktail (Perkin Elmer, Shelton, Conn.) was added (50 μl/well) and plates were counted using a Packard Top-Count for 1 min/well. Data were analyzed using the sigmoidal dose-response curve fitting functions in GraphPad PRISM v. 3.0, or an in-house function for non-linear, sigmoidal dose-response curve-fitting.
μ-Opioid Receptor Functional Data: μ GTP EC50 is the concentration of a compound providing 50% of the maximal response for the compound at a μ-opioid receptor.
μ GTP Emax (%) is the maximal effect elicited by a compound relative to the effect elicited by DAMGO, a standard μ agonist. Generally, the μ GTP Emax (%) value measures the efficacy of a compound to treat or prevent pain or other Conditions.
(§1) The following TABLE 3 provides results on the activity response of certain Compounds of the Invention at the μ- and κ-opioid receptors determined as described above using U-2 OS cells.
In general terms: GTPγS resists hydrolysis and so accumulates on activated G proteins.

In another test the target is κ opioid receptor (Homo sapiens (Human), UniProt P41145). Kind of test: κ-opioid receptor [35S]GTPγS functional assay, U-2 OS cells. Conditions: for Emax: relative to U69,593, U-2 OS cells. The class given is biochemical. As to the method:
κ-Opioid Receptor Functional Assay Procedures: Functional [^35S]GTPγS binding assays were conducted as follows. κ opioid receptor membrane solution was prepared by sequentially adding final concentrations of 0.026 μg/μl κ membrane protein (in-house), 10 μg/mL saponin, 3 μM GDP and 0.20 nM [^35S]GTPγS to binding buffer (100 mM NaCl, 10 mM MgCl2, 20 mM HEPES, pH 7.4) on ice. The prepared membrane solution (190 μl/well) was transferred to 96-shallow well polypropylene plates containing 10 μl of 20× concentrated stock solutions of agonist prepared in DMSO. Plates were incubated for 30 min at a temperature of about 25° C. with shaking. Reactions were terminated by rapid filtration onto 96-well Unifilter GF/B filter plates (Perkin Elmer, Shelton, Conn.) using a 96-well tissue harvester (Packard) and followed by three filtration washes with 200 μl ice-cold binding buffer (10 mM NaH2PO4, 10 mM Na2HPO4, pH 7.4). Filter plates were subsequently dried at 50° C. for 2-3 hours. Fifty μl/well scintillation cocktail (Perkin Elmer, Shelton, Conn.) was added and plates were counted in a Packard Top-Count for 1 min/well.
κ-Opioid Receptor Functional Data: κ GTP EC50 is the concentration of a compound providing 50% of the maximal response for the compound at a κ receptor.
κ GTP Emax (%) is the maximal effect elicited by a compound relative to the effect elicited by U69,593.
as §1

As usually defined, the EC50 is the midpoint of the concentration-response curve. Usually Emax stands for the size of the effect at its maximum, as opposed to the concentration needed. On to `COc1ccc2c(c1)[C@]13CCN(C/C=C/c4ccccc4)[C@H](C2)[C@]1(O)CC[C@@]1(C3)NC(=O)NC1=O` [Compound 24, (4bR,4′S,8aS,9R)-11-cinnamyl-8a-hydroxy-3-methoxy-5,7,8,8a,9,10-hexahydrospiro[9,4b-(epiminoethano)phenanthrene-6,4′-imidazolidine]-2′,5′-dione], for which, at μ-opioid receptor, the EC50 was more than 20000 nM and the Emax came to 8%. For the same compound, on κ opioid receptor, the EC50 is more than 20000 nM and the Emax stood at 29.7 ± 1.86%.

On to `COc1ccc2c(c1)[C@]13CCN(CC=C(C)C)[C@H](C2)[C@]1(O)CC[C@@]1(C3)NC(=O)NC1=O` [Compound 21, (4bR,4′S,8aS,9R)-8a-hydroxy-3-methoxy-11-(3-methylbut-2-en-1-yl)-5,7,8,8a,9,10-hexahydrospiro[9,4b-(epiminoethano)phenanthrene-6,4′-imidazolidine]-2′,5′-dione], for which, at μ-opioid receptor, the concentration giving a half-maximal response (EC50) was more than 20000 nM and the Emax is 5.5%. Moreover, on κ opioid receptor, the EC50 was more than 20000 nM and the Emax is -1%.

In the case of `O=C1NC(=O)[C@@]2(CC[C@@]3(O)[C@H]4Cc5ccc(O)cc5[C@@]3(CCN4CC3CC3)C2)N1CC(F)(F)F` [Compound 64, (4S,4b′R,8a′S,9′R)-11′-(cyclopropylmethyl)-3′,8a′-dihydroxy-3-(2,2,2-trifluoroethyl)-8′,8a′,9′,10′-tetrahydro-5′H,7′H-spiro[imidazolidine-4,6′-[9,4b](epiminoethano)-phenantrene]-2,5-dione], at μ-opioid receptor, the EC50 was found to be 2.76 ± 0.5 nM and the Emax amounted to 14 ± 0.58%. Also, at κ opioid receptor, a half-maximal effect (EC50) was put at 22.2 ± 1.46 nM and the Emax stood at 106 ± 2.85%.

Take `COc1ccc2c(c1)[C@]13CCN(CCCc4ccccc4)[C@H](C2)[C@]1(O)CC[C@@]1(C3)NC(=O)NC1=O` [Compound 26, (4bR,4′S,8aS,9R)-8a-hydroxy-3-methoxy-11-(3-phenylpropyl)-5,7,8,8a,9,10-hexahydrospiro[9,4b-(epiminoethano)phenanthrene-6,4′-imidazolidine]-2′,5′-dione]: at μ-opioid receptor, the EC50 is more than 20000 nM and the Emax came to 26.7 ± 11.7%. Further, on κ opioid receptor, the EC50 is more than 20000 nM and the Emax was 63 ± 8.72%.

Take `O=C1N[C@]2(CC[C@@]3(O)[C@H]4Cc5ccc(O)cc5[C@@]3(CCN4CC3CC3)C2)C(=O)N1Cc1ccc(O)cc1` [Compound 47, (4S,4b′R,8a′S,9′R)-11′-(cyclopropylmethyl)-3′,8a′-dihydroxy-1-(4-hydroxybenzyl)-8′,8a′,9′,10′-tetrahydro-5′H,7′H-spiro[imidazolidine-4,6′-[9,4b](epiminoethano)-phenantrene]-2,5-dione]: on μ-opioid receptor, it took 4.66 ± 0.89 nM to reach a half-maximal effect (EC50) and the Emax came to 49 ± 1.53%. On κ opioid receptor, the response was half-maximal at 1.21 ± 0.11 nM (EC50) and the Emax came to 104 ± 3.67%.

In the case of `CCN1C(=O)N[C@]2(CC[C@@]3(O)[C@H]4Cc5ccc(OC)cc5[C@@]3(CCN4CC)C2)C1=O` [Compound 16, (4bR,4′S,8aS,9R)-1′,11-diethyl-8a-hydroxy-3-methoxy-5,7,8,8a,9,10-hexahydrospiro[9,4b-(epiminoethano)phenanthrene-6,4′-imidazolidine]-2′,5′-dione], at μ-opioid receptor, the concentration for a half-maximal effect (EC50) is more than 20000 nM and the Emax worked out at 8.5%. Besides, at κ opioid receptor, the EC50 was more than 20000 nM and the Emax was 50 ± 1%.

On to `CCN1C(=O)N[C@]2(CC[C@@]3(O)[C@H]4Cc5ccc(O)cc5[C@@]3(CCN4CC3CC3)C2)C1=O` [Compound 45, (4S,4b′R,8a′S,9′R)-11′-(cyclopropylmethyl)-1-ethyl-3′,8a′-dihydroxy-8′,8a′,9′,10′-tetrahydro-5′H,7′H-spiro[imidazolidine-4,6′-[9,4b](epiminoethano)phenantrene]-2,5-dione], for which the 50% effective concentration (EC50) at μ-opioid receptor amounted to 6.47 ± 0.69 nM; at κ opioid receptor, 4.34 ± 0.74 nM. The values for the Emax at μ-opioid receptor and on κ opioid receptor were 45.9 ± 3.04% and 96.3 ± 1.33%, respectively.
